The text below walks through data of patent US12084472B2 (Ardelyx, Inc., priority 2015, dated 2024).

The target in the experiment is T1, human TGR5 (Homo sapiens, UniProt Q8TDU6).
T1 construct: expressed in transfected cells; host or cells: HEK293
T1 sequence (Q8TDU6 1-330): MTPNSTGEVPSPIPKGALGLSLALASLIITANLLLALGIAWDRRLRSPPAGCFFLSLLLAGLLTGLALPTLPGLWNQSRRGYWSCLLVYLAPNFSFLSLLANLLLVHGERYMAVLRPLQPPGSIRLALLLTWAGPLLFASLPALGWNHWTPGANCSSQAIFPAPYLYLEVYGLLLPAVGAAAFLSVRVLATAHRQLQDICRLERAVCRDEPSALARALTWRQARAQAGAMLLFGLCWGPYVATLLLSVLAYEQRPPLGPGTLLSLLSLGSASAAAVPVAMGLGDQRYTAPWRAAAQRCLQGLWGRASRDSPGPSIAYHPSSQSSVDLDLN
As to the kind of experiment: Cell-based TGR5 assay (cAMP generation, HTRF). Conditions: HEK293 cells stably transfected with human TGR5; cAMP by HTRF; 30 minutes at 37° C.; read-out: pEC50 Human TGR5 (converted). In short, it runs like this:
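Read-out was HTRF detection of cAMP, converted to concentration via a standard curve and fitted (3-parameter logistic) for pEC50 and maximal response. Agonist stimulation used HEK293 cells stably transfected with human TGR5, incubated 30 min at 37° C in IBMX-containing buffer at 0.05 nM to 10 μM compound.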
In the case of `O=C1CCO[C@H]([C@@H](O)[C@H](O)[C@H](O)CO)CN1CCCCc1cc(Cl)c(COC2(c3cnccc3-c3ccccc3OC3CC3)CC2)cc1Cl` [Compound I-78, (S)-4-(4-(2,5-dichloro-4-((1-(4-(2-cyclopropoxyphenyl)pyridin-3-yl)cyclopropoxy)methyl)phenyl)butyl)-2-((1S,2R,3R)-1,2,3,4-tetrahydroxybutyl)-1,4-oxazepan-5-one], the EC50 is under 100 nM.
Then `CNC(=O)N(CCCCc1cc(Cl)c(COC2(c3cnccc3-c3ccccc3OC3CC3)CC2)cc1Cl)C[C@H](O)[C@@H](O)[C@H](O)[C@H](O)CO` [Compound I-79], with under 100 nM.
Then `O=CN(CCCCc1cc(Cl)c(COC2(c3cnccc3-c3ccccc3OC3CC3)CC2)cc1Cl)C[C@H](O)[C@@H](O)[C@H](O)[C@H](O)CO` [Compound I-80, N-(4-(2,5-dichloro-4-((1-(4-(2-cyclopropoxyphenyl)pyridin-3-yl)cyclopropoxy)methyl)phenyl)butyl)-N-((2S,3R,4R,5R)-2,3,4,5,6-pentahydroxyhexyl)formamide], with under 100 nM; and `O=C([C@H](O)[C@@H](O)[C@H](O)[C@H](O)CO)N(CCCCO)CCCCc1cc(Cl)c(COC2(c3cnccc3-c3ccccc3OC3CC3)CC2)cc1Cl` [Compound I-81, (2R,3S,4R,5R)-N-(4-(2,5-dichloro-4-((1-(4-(2-cyclopropoxyphenyl)pyridin-3-yl)cyclopropoxy)methyl)phenyl)butyl)-2,3,4,5,6-pentahydroxy-N-(4-hydroxybutyl)hexanamide], with under 100 nM.
For the compound `NC(=O)CN(CCCCc1cc(Cl)c(COC2(c3cnccc3-c3ccccc3OC3CC3)CC2)cc1Cl)C(=O)[C@@H](O)[C@@H](O)[C@H](O)[C@@H](O)CO` [Compound I-82, (2S,3S,4R,5S)-N-(carbamoylmethyl)-N-{4-[2,5-dichloro-4-({1-[4-(2-cyclopropoxyphenyl)pyridin-3-yl]cyclopropoxy}methyl)phenyl]butyl}-2,3,4,5,6-pentahydroxyhexanamide], the EC50 was under 100 nM.
Then `O=C([C@H](O)[C@@H](O)[C@H](O)[C@H](O)CO)N(CCCCCCO)CCCCc1cc(Cl)c(COC2(c3cnccc3-c3ccccc3OC3CC3)CC2)cc1Cl` [Compound I-83, (2R,3S,4R,5R)-N-{4-[2,5-dichloro-4-({1-[4-(2-cyclopropoxyphenyl)pyridin-3-yl]cyclopropoxy}methyl)phenyl]butyl}-2,3,4,5,6-pentahydroxy-N-(6-hydroxyhexyl)hexanamide], with under 100 nM; and `NS(=O)(=O)CCN(CCCCc1cc(Cl)c(COC2(c3cnccc3-c3ccccc3OC3CC3)CC2)cc1Cl)C(=O)[C@H](O)[C@@H](O)[C@H](O)[C@H](O)CO` [Compound I-84, (2R,3S,4R,5R)-N-{4-[2,5-dichloro-4-({1-[4-(2-cyclopropoxyphenyl)pyridin-3-yl]cyclopropoxy}methyl)phenyl]butyl}-2,3,4,5,6-pentahydroxy-N-(2-sulfamoylethyl)hexanamide], with under 100 nM; and `O=C([C@@H](O)[C@@H](O)[C@H](O)[C@@H](O)CO)N(CCCCc1cc(Cl)c(COC2(c3cnccc3-c3ccccc3OC3CC3)CC2)cc1Cl)CCOCCO` [Compound I-85], with under 100 nM.
The same measure for `O=C(NC[C@H](O)[C@@H](O)[C@H](O)[C@H](O)CO)N(CCCCc1cc(Cl)c(COC2(c3cnccc3-c3ccccc3OC3CC3)CC2)cc1Cl)CCOCCO` [Compound I-86, 1-(4-(2,5-dichloro-4-((1-(4-(2-cyclopropoxyphenyl)pyridin-3-yl)cyclopropoxy)methyl)phenyl)butyl)-1-(2-(2-hydroxyethoxy)ethyl)-3-((2S,3R,4R,5R)-2,3,4,5,6-pentahydroxyhexyl)urea]: under 100 nM.
Then `O=C(O)CN(C[C@H](O)[C@@H](O)[C@H](O)[C@H](O)CO)C(=O)CCCCc1cc(Cl)c(COC2(c3cnccc3-c3ccccc3OC3CC3)CC2)cc1Cl` [Compound I-87, 2-(5-(2,5-dichloro-4-((1-(4-(2-cyclopropoxyphenyl)pyridin-3-yl)cyclopropoxy)methyl)phenyl)-N-((2S,3R,4R,5R)-2,3,4,5,6-pentahydroxyhexyl)pentanamido)acetic acid], with under 100 nM.
Consider `O=C(O)CN1CCN(C(=O)CCCCc2cc(Cl)c(COC3(c4cnccc4-c4ccccc4OC4CC4)CC3)cc2Cl)CC1` [Compound I-88, 2-(4-(5-(2,5-dichloro-4-((1-(4-(2-cyclopropoxyphenyl)pyridin-3-yl)cyclopropoxy)methyl)phenyl)pentanoyl)piperazin-1-yl)acetic acid], for which the EC50 is under 100 nM.
The same measure for `CN(C[C@H](O)[C@@H](O)[C@H](O)[C@H](O)CO)C(=O)CN1CCN(C(=O)CCCCc2cc(Cl)c(COC3(c4cnccc4-c4ccccc4OC4CC4)CC3)cc2Cl)CC1` [Compound I-89, 2-(4-(5-(2,5-dichloro-4-((1-(4-(2-cyclopropoxyphenyl)pyridin-3-yl)cyclopropoxy)methyl)phenyl)pentanoyl)piperazin-1-yl)-N-methyl-N-((2S,3R,4R,5R)-2,3,4,5,6-pentahydroxyhexyl)acetamide]: under 100 nM.
With `O=C(CCCCc1cc(Cl)c(COC2(c3cnccc3-c3ccccc3OC3CC3)CC2)cc1Cl)NCCOCCOCCOCCNC(=O)CCCCc1cc(Cl)c(COC2(c3cnccc3-c3ccccc3OC3CC3)CC2)cc1Cl` [Compound I-90, N,N′-(((oxybis(ethane-2,1-diyl))bis(oxy))bis(ethane-2,1-diyl))bis(5-(2,5-dichloro-4-((1-(4-(2-cyclopropoxyphenyl)pyridin-3-yl)cyclopropoxy)methyl)phenyl)pentanamide)], the EC50 is 126 to 1000 nM.
Then `O=C(O)CN1CCN(CCNC(=O)CCCCc2cc(Cl)c(COC3(c4cnccc4-c4ccccc4OC4CC4)CC3)cc2Cl)CC1` [Compound I-91, 2-(4-(2-(5-(2,5-dichloro-4-((1-(4-(2-cyclopropoxyphenyl)pyridin-3-yl)cyclopropoxy)methyl)phenyl)pentanamido)ethyl)piperazin-1-yl)acetic acid], with under 100 nM.
Then `O=C(CCCCc1cc(Cl)c(COC2(c3cnccc3-c3ccccc3OC3CC3)CC2)cc1Cl)N1CCN(C[C@H](O)[C@@H](O)[C@@H](O)[C@H](O)CO)CC1` [Compound I-92, 5-(2,5-dichloro-4-((1-(4-(2-cyclopropoxyphenyl)pyridin-3-yl)cyclopropoxy)methyl)phenyl)-1-(4-((2S,3R,4S,5R)-2,3,4,5,6-pentahydroxyhexyl)piperazin-1-yl)pentan-1-one], with under 100 nM.
Then `O=C(CCCCc1cc(Cl)c(COC2(c3cnccc3-c3ccccc3OC3CC3)CC2)cc1Cl)NC[C@@H]1O[C@H](C(=O)O)[C@@H](O)[C@H](O)[C@H]1O` [Compound I-93, (2S,3S,4R,5R,6S)-6-((5-(2,5-dichloro-4-((1-(4-(2-cyclopropoxyphenyl)pyridin-3-yl)cyclopropoxy)methyl)phenyl)pentanamido)methyl)-3,4,5-trihydroxytetrahydro-2H-pyran-2-carboxylic acid], with under 100 nM; and `CCN(C[C@H](O)[C@@H](O)[C@H](O)[C@H](O)CO)C(=O)NCCCCc1cc(Cl)c(COC2(c3cnccc3-c3ccccc3OC3CC3)CC2)cc1C` [Compound I-94, 3-(4-(5-chloro-4-((1-(4-(2-cyclopropoxyphenyl)pyridin-3-yl)cyclopropoxy)methyl)-2-methylphenyl)butyl)-1-ethyl-1-((2S,3R,4R,5R)-2,3,4,5,6-pentahydroxyhexyl)urea], with under 100 nM.
In the case of `Cc1cc(COC2(c3cnccc3-c3ccccc3OC3CC3)CC2)c(Cl)cc1CCCCNC(=O)N[C@@H](CO)[C@@H](O)[C@H](O)[C@H](O)CO` [Compound I-95, 1-(4-(5-chloro-4-((1-(4-(2-cyclopropoxyphenyl)pyridin-3-yl)cyclopropoxy)methyl)-2-methylphenyl)butyl)-3-((2S,3R,4S,5R)-1,3,4,5,6-pentahydroxyhexan-2-yl)urea], the EC50 was under 100 nM.
Then `CCN(CCCCc1cc(Cl)c(COC2(c3cnccc3-c3ccccc3OC3CC3)CC2)cc1C)C(=O)NC[C@H](O)[C@@H](O)[C@H](O)[C@H](O)CO` [Compound I-96, 1-(4-(5-chloro-4-((1-(4-(2-cyclopropoxyphenyl)pyridin-3-yl)cyclopropoxy)methyl)-2-methylphenyl)butyl)-1-ethyl-3-((2S,3R,4R,5R)-2,3,4,5,6-pentahydroxyhexyl)urea], with under 100 nM.
The same measure for `Cc1cc(COC2(c3cnccc3-c3ccccc3OC3CC3)CC2)c(Cl)cc1CCCCN(CCO)C(=O)NC[C@H](O)[C@@H](O)[C@H](O)[C@H](O)CO` [Compound I-97, 1-(4-(5-chloro-4-((1-(4-(2-cyclopropoxyphenyl)pyridin-3-yl)cyclopropoxy)methyl)-2-methylphenyl)butyl)-1-(2-hydroxyethyl)-3-((2S,3R,4R,5R)-2,3,4,5,6-pentahydroxyhexyl)urea]: 126 to 1000 nM; for `O=C(CN1CCN(C(=O)CCCCc2cc(Cl)c(COC3(c4cnccc4-c4ccccc4OC4CC4)CC3)cc2Cl)CC1)NC[C@H](O)[C@@H](O)[C@H](O)[C@H](O)CO` [Compound I-98, 2-(4-{5-[2,5-dichloro-4-({1-[4-(2-cyclopropoxyphenyl)pyridin-3-yl]cyclopropoxy}methyl)phenyl]pentanoyl}piperazin-1-yl)-N-[(2S,3R,4R,5R)-2,3,4,5,6-pentahydroxyhexyl]acetamide]: under 100 nM.
